US12016831B2, “Polidocanol for use as immunomodulating agent” (priority 2018, dated 2024)

Tests used:
Assay type in all cases: in vivo, human
[1] = system: patients with C2 CEAP Class and bearing lower limbs varices; assay: Venous refilling time measurement via photoplethysmography (FPG); settings: for venous refilling time (VRT): Diluted Polidocanol Group
Text: The results were confirmed by photoplethysmography in a limited number of patients (n=20) wherein the measurement of venous refilling registered and examined, compared to the beginning of the treatment (after at least 4 sessions), has evidenced an increase of the peripheral venous refilling time in 17 out of 20 cases, indicating a plausible increase of venous resistance, i.e. a reduction of the peripheral reticulo-capillary bed or anyway of the superficial venous system. • 9. Improvement of the so-called “cellulitis”. The results were as follows:
40 patients with C2 CEAP Class and bearing lower limbs varices were examined via photoplethysmography exam with a Photoplethysmograph with Light Reflection Rheography/1-Channel (Vasoquant 1000 D-Ppg), they were divided into two homogeneous groups wherein the venous refilling time was measured before and after the hemodynamic therapy.
In the Diluted Polidocanol Group the hemodynamic therapy was followed after 30 days by sclerosing treatment with diluted polidocanol, prepared as described in example 1. In the Basal Group, after hemodynamic therapy no further treatment was carried out.
In the Basal Group of 20 patients, measurements of the refilling time of the superficial veins (SV) via photoplethysmography (FPG) exam were carried out at time zero, at time 1 (1 month) after hemodynamic (surgical) therapy on the varices, and at time 6 (6 months) without any further treatment.
In the Diluted Polidocanol Group of 20 patients, measurements of the refilling time of the SV via FPG were carried out at time zero, at 1 month after hemodynamic (surgical) therapy on the varices, and at time 6 (6 months) after 3-4 sessions of sclerotherapy with the method of the invention.

[2] = system: individuals over 70 years old with a peripheral venous insufficiency; assay: Serum CRP levels in individuals over 70 years old with osteoarticular problems; settings: for CRP level: T2 (8 days)
Experimental: CRP levels in serum samples of individuals over 70 years old, chronically affected by osteoarticular problems, with or without pain, was also measured. CRP levels were measured within a group of 30 people, with a peripheral venous insufficiency. The subjects (23 females, 7 males) underwent sclerotherapy according to the invention. Then, CRP levels were measured at time 0 (beginning of treatment) at T1 (24 hours after treatment) and at T2 (8 days after treatment).

[3] = system: venous, reticular or capillary vessels of treated subjects; assay: Clinical observation of treated subjects: venous functionality, sclerosing effect, side effects; settings: for sclerosing effect (venous, reticular or capillary parietal damage): diluted solution according to the invention, intravenous
Experimental: It is administered parenterally via the intravenous route.
Moreover, its use, for at least 4 applications every two months, contributes in determining a higher overall well-being, associated with an anti-inflammatory activity and with the modulation of several molecular markers of the immune and endothelial system. This modulation in addition to ameliorating the venous system functionality, which is objectively observed in most of the treated subjects (95-98%) and results in a reduction of the limbs heaviness sensation and of orthostatic oedema and cellulitis, exert a systemic effects, often also accompanied by an improved skin trophism.
There is almost no evidence even of quite common reactions (0.1-1%), such as superficial thrombophlebitis, allergic dermatitis, hives, erythema, skin necrosis.
Therefore, a further aspect of the present invention is a composition comprising polidocanol in concentration below 0.1%, preferably of from 0.03 to 0.09% by weight, preferably of from 0.04 to 0.08%, preferably of 0.05%-0.06% in saline solution (0.9% w/V NaCl) for use as immunomodulating and anti-inflammatory agent.

Polidocanol [diluted polidocanol]
patients with an improved index according to FPG exam ([1]; 6 months, after 3-4 sessions, 18 out of 20): 90%
venous refilling time (VRT) ([1]; 1 month, basal 24.3±6.78, p<0.05): 35.3 ± 4.14 s
venous refilling time (VRT) ([1]; 6 months, after 3-4 sessions, p<0.05 vs 1 month): 37.6 ± 4.13 s
refilling time at T6, Diluted Polidocanol Group vs basal group ([1]; T6 (6 months), basal group 35, p<0.001 Chi-squared test): 38 s
cases with increase of the peripheral venous refilling time ([1]; n=20, after at least 4 sessions, compared to the beginning of the treatment): 17 out of 20
CRP levels vs time 0 ([2]; T1 (24 hours after treatment), 30 people over 70): did not show any variation
individuals showing a notable reduction of CRP levels ([2]; T2 (8 days after treatment), 27 out of 30): 90%
CRP level ([2]; case with starting CRP level 15 mg/l): 10 mg/L
CRP level ([2]; case with starting CRP level 18 mg/l): 9 mg/L
CRP level ([2]; case with starting CRP level 27 mg/l): 16 mg/L
treated subjects in which ameliorated venous system functionality is objectively observed ([3]; at least 4 applications every two months): 95-98%
side effects ([3]; concentrations of the treatment according to the invention, vs traditional sclerotherapy): very limited to zero side effects
sclerosing effect (venous, reticular or capillary parietal damage) [3]: does not exert a sclerosing effect
sclerosing effect (venous, reticular or capillary parietal damage) ([3]; listed as polidocanol): non-sclerosing effect
polidocanol concentrations having a sclerosing effect on small calibre capillaries or reticular veins ([3]; human, in vivo): ≥ 0.12%
